The numbers were not newly measured in patent US20140044685A1, “NUTRITIONAL COMPOSITIONS HAVING ALPHA-HICA AND CITRULLINE” (NESTEC S.A., priority 2011, published 2014), which cites them from elsewhere.

Data set [1] concerns intestinal mammalian target of rapamycin (mTOR). The following applies: piglet stressed with LPS; leading to increased protein synthesis and anti-inflammatory responses.
The conditions of data set [2]: piglet stressed with LPS.
For data set [3] the following is noted: malnourished aged animals.

For `O=C(O)CCC(=O)C(=O)O` [AKG, α-ketoglutarate], the “phosphorylation of intestinal mammalian target of rapamycin (mTOR)” value in data set [1] was “increased”. Also, in data set [2], the crypt depth entry is “reduced” and the villous height result is on record as “increased”.

For the compound `NC(=O)NCCC[C@H](N)C(=O)O` [Citrulline, citrulline], in data set [3], the anabolic effect result is “anabolic effect”.
